In one assay the target is T1, CCR2 (Homo sapiens, UniProt P41597).
T1 construct: host or cells: HEK293T, transient
T1 sequence (P41597 1-360 isoform P41597-2): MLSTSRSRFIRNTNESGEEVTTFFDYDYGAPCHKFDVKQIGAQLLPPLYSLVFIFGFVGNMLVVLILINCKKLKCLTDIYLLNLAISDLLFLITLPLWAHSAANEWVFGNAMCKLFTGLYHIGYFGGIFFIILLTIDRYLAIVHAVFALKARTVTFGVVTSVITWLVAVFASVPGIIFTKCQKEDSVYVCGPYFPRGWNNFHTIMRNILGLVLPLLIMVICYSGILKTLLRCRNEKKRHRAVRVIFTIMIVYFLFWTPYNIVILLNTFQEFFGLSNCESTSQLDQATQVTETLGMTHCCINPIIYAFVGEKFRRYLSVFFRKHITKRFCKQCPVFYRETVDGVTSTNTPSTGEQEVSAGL
Description: NanoBRET competition binding assay for CCR2 based on 7, as previously reported. The conditions noted are these: for inhibition at 20 µM: compound at 20 μM. The text has this:
With 6 (Figure 1), a first lead structure for intracellular CCR1 inhibition that features an approximately 20-fold CCR1 over CCR2 selectivity was previously discovered by Ortiz Zacarías et al.([33]) In order to discover new chemotypes for selective CCR1 over CCR2 inhibition, we aimed to apply our novel NanoBRET competition binding assay for CCR1 in combination with our recently published CCR2 competition binding assay based on 7.[47] In our first attempt, we screened a small in-house library enriched with intracellular GPCR ligands and structural analogues thereof. […] Additionally, we tested 23 for binding to the IABS of CCR9 and CXCR2 using our recently reported NanoBRET-based assay platform (Figure 6C).[44],[45] In the course of these studies, we detected no binding of 23 to CCR9 and CXCR2 up to a concentration of 20 μM. Since cell lineage-dependent effects have been observed for CCR1 antagonists,[59] we studied the CCR1 over CCR2 selectivity of 23 by using a previously reported radioligand binding assay with membrane preparations from osteosarcoma (U2OS) cells stably expressing human CCR1 or CCR2.[33] […] In agreement with these previous reports,[33] we observed a reduction in CCR1 over CCR2 selectivity when moving from membrane-based binding assays to cell-based functional assays. […] To investigate a potential signaling bias of 23, we tested the compound by means of a NanoBiT miniGi recruitment assay.[60] […] Thus, this indicated no strong signaling bias of 23 (Figures S9E and S10C). To elucidate the SAR of this new scaffold for selective CCR1 over CCR2 inhibition, we synthesized several analogues of 23 (24–40) and tested them by means of our NanoBRET competition binding assays (Schemes S2 and S3, Table 1, Figures 6F and S11). First, we aimed to examine the impact of the stereochemistry of 23 on CCR1 affinity. As for the structurally related pyrrolone 4, large differences in CCR2 affinity between the eutomer 4-[R] and the distomer 4-[S] were described.[61] […] Furthermore, we identified the 4-hydroxyphenethyl group at position 1 of the pyrrolone scaffold as highly important for CCR1 affinity and selectivity. Its presence seems to block CCR2 binding, also when combined with the structural features of the high-affinity CCR2 ligand 5, as exemplified by 24. Especially the 4-hydroxy group at this moiety is essential for CCR1 binding (see 25 and 26). […] In position 5 of the pyrrolone, several aromatic and aliphatic substituents were tolerated (see 31–35).

Assay [1] has as its target T2, CCR1 (Homo sapiens, UniProt P32246).
T2 sequence (P32246 1-355): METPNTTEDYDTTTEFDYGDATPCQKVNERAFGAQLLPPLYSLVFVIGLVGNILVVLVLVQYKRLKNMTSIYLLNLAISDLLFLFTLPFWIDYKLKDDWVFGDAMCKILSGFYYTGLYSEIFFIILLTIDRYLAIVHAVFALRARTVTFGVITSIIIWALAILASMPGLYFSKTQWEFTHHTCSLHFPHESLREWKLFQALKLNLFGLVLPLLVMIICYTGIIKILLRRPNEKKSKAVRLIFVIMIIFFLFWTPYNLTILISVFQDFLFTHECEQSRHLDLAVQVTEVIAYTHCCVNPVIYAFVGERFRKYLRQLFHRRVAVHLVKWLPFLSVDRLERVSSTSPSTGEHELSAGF
Description: Membrane-based NanoBRET competition assay with 12 (2000 nM) and CCR1_Nluc membranes. In kind it is binding. Further details: Promega pNLF1-C (Nluc) #CCR010TN00; host or cells: HEK293T, transient (PEI). The conditions noted are these: 12 (2000 nM); for CCR1 inhibition class (n.i.) / % inh. of tracer binding, CCR1: compound at 20 μM.

Assay [2] deals with T2, CCR1. Briefly: Live cell NanoBRET binding assay, HEK293T cells expressing CCR1_Nluc. Further details: Promega pNLF1-C (Nluc) #CCR010TN00; host or cells: HEK293T, transient (PEI). Conditions: 12 (1000 nM), live HEK293T cells.
[3] abbreviates: read-out: CCR2 inhibition class (n.i.).
The mark [4] stands for this setting: CCR1_Nluc membranes, read-out: Ki, CCR1 (converted).
Setting [5] is: read-out: % inh. of tracer binding, CCR2.
Setting [6] is: CCR1_Nluc membranes, read-out: pKi ± SEM, CCR1 (converted).
The mark [7] stands for this setting: CCR1_Nluc membranes, read-out: Ki, CCR1 (Figure 5B).

Like-named read-outs stand apart in the source and are kept apart here.

For the molecule `O=C(C1=C(O)C(=O)N(CCc2ccc(O)cc2)C1c1ccc(F)cc1)c1ccccc1` (single isomer, unassigned; (+)) [(+)-23], the inhibition at 20 µM at CCR2 (setting [3]) was less than 10%. Besides, the Ki on CCR1 [1] (setting [4]) is 65.7 nM.
`O=C(C1=C(O)C(=O)N(CCc2ccc(O)cc2)C1c1ccc(F)cc1)c1ccccc1` (single isomer, unassigned; (-)) [(-)-23]: the inhibition at 20 µM at CCR2 (setting [5]) was found to be 27%. Also, the Ki on CCR1 [1] (setting [4]) was 216 nM; at CCR1 [1] (setting [6]), 209 nM.
With `CS(=O)(=O)c1cc(C2(NC(=O)c3cncc4c3cnn4-c3ccc(F)cc3)CC2)ccn1` [compound 3, reference compound], the “Enhancement of CCR1 binding of 12” value at CCR1 [1] (CCR1_Nluc membranes) is approximately 150%.
In the case of `COCc1cn(CCCC(=O)C2=C(O)C(=O)N(c3ccc(Br)cc3F)C2C2CCCCC2)nn1` (centres unmarked) [compound 10], on CCR1 [1] (setting [4]), the Ki was 97.6 nM.
Turning to `CC(C)C[C@H](CO)Nc1nc(S[C@@H](C)c2ccccc2)nc2nc(N)sc12` [compound 18, reference compound], the Ki is 98.3 nM on CCR1 [2] (read-out: Ki, live cells); 93.3 nM on CCR1 [2] (read-out: pKi ± SEM, live cells (converted)); 75.6 nM on CCR1 [1] (setting [4]); 72.4 nM at CCR1 [1] (setting [6]).
Regarding `O=C(O)c1ccc(Oc2ncc(Cl)cc2NS(=O)(=O)c2ccc(Cl)c(C(F)(F)F)c2)cc1` [compound 19, reference compound], the Ki at CCR1 [1] (setting [7]) is 350 nM; on CCR1 [1] (setting [4]), 354 nM.
Regarding `CC[C@@H](Nc1c(Nc2cccc(C(=O)N(C)C)c2O)c(=O)c1=O)c1ccc(C)o1` [compound 20, reference compound], the values for the Ki on CCR1 [1] (setting [7]) and on CCR1 [1] (setting [6]) were 2340 nM and 2240 nM, respectively.
In the case of `CC(C)(C)c1ccc(S(=O)(=O)Nc2ccc(Cl)cc2C(=O)c2cc[n+]([O-])cc2)cc1` [compound 21, reference compound], the Ki at CCR1 [1] (setting [7]) was 3130 nM; on CCR1 [1] (setting [6]), 2950 nM.
On the same counts, the results for `CC(C)(C)c1ccc(S(=O)(=O)Nc2ccc(Cl)cc2-c2cncnc2N)cc1` [compound 22, reference compound] are 2950 nM and 2630 nM.
With `CC(=O)C1=C(O)C(=O)N(CCc2ccc(O)cc2)C1C1CCCCC1` (centres unmarked) [compound 24], at CCR2 (setting [5]), the inhibition at 20 µM stood at 10%. Further, on CCR1 [1], the “CCR1 inhibition class (n.i.)” value is on record as “n.i. (no inhibition (percentual inhibition at 20 μM < 10%))”.
Take `O=C(C1=C(O)C(=O)N(CCc2ccccc2)C1c1ccc(F)cc1)c1ccccc1` (centres unmarked) [compound 25]: the inhibition at 20 µM on CCR2 (setting [3]) is less than 10%. Further, the Ki at CCR1 [1] (setting [4]) is 997 nM; at CCR1 [1] (setting [6]) it was 955 nM.
With `O=C(C1=C(O)C(=O)N(CCc2ccc(F)cc2)C1c1ccc(F)cc1)c1ccccc1` (centres unmarked) [compound 26], the inhibition at 20 µM on CCR2 (setting [3]) is less than 10%. Besides, the results for the Ki on CCR1 [1] (setting [4]) and at CCR1 [1] (setting [6]) were 952 nM and 871 nM, respectively.
`O=C(C1=C(O)C(=O)N(CCc2cccc(O)c2)C1c1ccc(F)cc1)c1ccccc1` (centres unmarked) [compound 27]: the inhibition at 20 µM on CCR2 (setting [3]) was less than 10%. Besides, the Ki on CCR1 [1] (setting [4]) was 184 nM; at CCR1 [1] (setting [6]), 178 nM.
`O=C(C1=C(O)C(=O)N(CCc2ccccc2O)C1c1ccc(F)cc1)c1ccccc1` (centres unmarked) [compound 28]: at CCR2 (setting [5]), the inhibition at 20 µM was determined as 49%. Besides, the Ki at CCR1 [1] (setting [4]) was 291 nM.
As for `O=C(C1=C(O)C(=O)N(Cc2ccc(O)cc2)C1c1ccc(F)cc1)c1ccccc1` (centres unmarked) [compound 29], the inhibition at 20 µM at CCR2 (setting [5]) came to 42%. Besides, the Ki at CCR1 [1] (setting [4]) is 130 nM; at CCR1 [1] (setting [6]), 120 nM.
`O=C(C1=C(O)C(=O)N(c2ccc(O)cc2)C1c1ccc(F)cc1)c1ccccc1` (centres unmarked) [compound 30]: the inhibition at 20 µM on CCR2 (setting [3]) was less than 10%. In addition, the “% inh. of tracer binding, CCR1” value at CCR1 [1] came to 32% @ 20 μM.
Take `O=C(C1=C(O)C(=O)N(CCc2ccc(O)cc2)C1c1ccc(Br)cc1)c1ccccc1` (centres unmarked) [compound 31]: the inhibition at 20 µM on CCR2 (setting [5]) is 19%. For the same molecule, the Ki at CCR1 [1] (setting [4]) was 189 nM; at CCR1 [1] (setting [6]) it was 182 nM.
Consider `O=C(C1=C(O)C(=O)N(CCc2ccc(O)cc2)C1c1cccc(Br)c1)c1ccccc1` (centres unmarked) [compound 32], for which the inhibition at 20 µM at CCR2 (setting [3]) is less than 10%. The Ki was 195 nM on CCR1 [1] (setting [4]) and 178 nM on CCR1 [1] (setting [6]).
As for `O=C(C1=C(O)C(=O)N(CCc2ccc(O)cc2)C1c1ccc(Cl)cc1)c1ccccc1` (centres unmarked) [compound 33], the inhibition at 20 µM on CCR2 (setting [5]) is 18%. The Ki was 200 nM at CCR1 [1] (setting [4]) and 191 nM on CCR1 [1] (setting [6]).
For `O=C(C1=C(O)C(=O)N(CCc2ccc(O)cc2)C1C1CCCCC1)c1ccccc1` (centres unmarked) [compound 34] the same measures were 37%, 231 nM and 219 nM.
In the case of `O=C(C1=C(O)C(=O)N(CCc2ccc(O)cc2)C1c1ccccc1)c1ccccc1` (centres unmarked) [compound 35], the inhibition at 20 µM on CCR2 (setting [3]) is less than 10%. Besides, the Ki on CCR1 [1] (setting [4]) was 279 nM; at CCR1 [1] (setting [6]), 257 nM.
For the molecule `O=C(C1=C(O)C(=O)N(CCc2ccc(O)cc2)C1c1ccc(F)cc1)C1CC1` (centres unmarked) [compound 36], on CCR2 (setting [3]), the inhibition at 20 µM was less than 10%. The “% inh. of tracer binding, CCR1” value at CCR1 [1] is 25% @ 20 μM.
For the molecule `O=C(C1=C(O)C(=O)N(CCc2ccc(O)cc2)C1c1cccc(Br)c1)C1CC1` (centres unmarked) [compound 37], the inhibition at 20 µM on CCR2 (setting [3]) was less than 10%. Moreover, the “CCR1 inhibition class (n.i.)” value on CCR1 [1] is recorded as “n.i. (no inhibition (percentual inhibition at 20 μM < 10%))”.
As for `O=C(C1=C(O)C(=O)N(CCc2ccc(O)cc2)C1c1ccc(F)cc1)c1ccc(O)cc1` (centres unmarked) [compound 38], the inhibition at 20 µM at CCR2 (setting [5]) amounted to 19%. For the same molecule, on CCR1 [1], the “% inh. of tracer binding, CCR1” value came to 42% @ 20 μM.
As for `O=C(C1=C(O)C(=O)N(CCc2ccc(O)cc2)C1c1ccc(F)cc1)c1cccc(O)c1` (centres unmarked) [compound 39], at CCR2 (setting [3]), the inhibition at 20 µM was less than 10%. Moreover, on CCR1 [1], the “% inh. of tracer binding, CCR1” value was found to be 38% @ 20 μM.
As for `O=C(C1=C(O)C(=O)N(c2ccc(Br)cc2F)C1c1ccc(F)cc1)c1ccccc1` (centres unmarked) [compound 40], the Ki on CCR2 (NanoBRET competition, tracer 7) was 7830 nM; on CCR1 [1] (setting [4]), 224 nM.
Take `CC(=O)C1=C(O)C(=O)N(c2ccc(Br)cc2)C1c1ccccc1[N+](=O)[O-]` (centres unmarked) [compound 41]: on CCR1 [1], the “% inh. of tracer binding, CCR1” value was not below 50%.
The same measure, in the same setting: to `Cc1ccc(S(=O)(=O)Nc2ccc(Cl)cc2C(=O)c2ccccc2)cc1` [compound 42] belongs not below 50%.
As to “CCL7: orthosteric CCR1 agonist chemokine, also referred to as MCP-3”, in the assay with CCR1 [1] (CCR1_Nluc membranes), the “Competition with 12 at CCR1” value is “no competition”.

For the origin of these results see paper PMC11249626, “Fluorophore-Labeled Pyrrolones Targeting the Intracellular Allosteric Binding Site of the Chemokine Receptor CCR1” (ACS Pharmacology & Translational Science, 2024).
